Experimental data taken from patent US4514408A, “N-substituted nicotinamide 1-oxide as histamine H2 receptor blockers” (Sanofi, priority 1982, dated 1985).

Columns and labels:
[1] = biological target: T1, gastric histamine H2 receptors (Rattus norvegicus, UniProt P25102); experiment: antisecretory activity: antagonism of gastric hypersecretion induced by histamine in the atropinised rat (Ghosh and Schild modified according to Black); type: in vivo; details: for ED50: intravenous, single administration, histamine i.v. infusion 15 mcmol/kg/hour, atropinised rat, read-out: ID50 (dose which inhibits by 50% the gastric hypersecretion induced by histamine)
T1 construct: the gastric secretion is measured by perfusion of a physiological solution at a constant speed in the stomach of the animal; from tissue; host or cells: stomach of the living atropinised rat (in vivo, endogenous receptor)
Procedure: According to this test, a gastric acid hypersecretion is induced by intravenous infusion of a sub-maximal dose of histamine equivalent to 15 mcmol/kg/hour and the gastric secretion is measured by perfusion of a physiological solution at a constant speed in the stomach of the animal.
Cimetidine and ranitidine, which represent standard compounds, as well as:
the compound of formula [drawing 5] as oxalate, and […]

histamine H2 receptors = details: i.v.; cited from earlier work
[2] = from ID50, i.v., cimetidine = 1

T1 sequence (P25102 whole entry, the tested form may be a part): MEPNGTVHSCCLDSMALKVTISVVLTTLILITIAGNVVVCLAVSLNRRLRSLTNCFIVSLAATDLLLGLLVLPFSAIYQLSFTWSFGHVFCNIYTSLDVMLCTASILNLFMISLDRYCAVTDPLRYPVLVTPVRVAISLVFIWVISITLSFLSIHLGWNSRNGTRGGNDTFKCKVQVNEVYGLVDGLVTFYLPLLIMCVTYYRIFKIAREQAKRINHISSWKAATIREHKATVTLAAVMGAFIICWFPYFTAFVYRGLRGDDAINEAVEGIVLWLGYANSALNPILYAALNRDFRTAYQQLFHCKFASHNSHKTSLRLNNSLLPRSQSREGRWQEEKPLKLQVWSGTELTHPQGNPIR

| SMILES | Relative potency (cimetidine = 1) [1, 2] | ED50 [1] [µmol/kg] | ED50 (histamine H2 receptors) [mg/kg] | Relative potency (cimetidine = 1) ([1]; rat, in vivo, iv) |
| --- | --- | --- | --- | --- |
| O=C(NCCCOc1cccc(CN2CCCC2)c1)c1ccc[n+]([O-])c1 [CM 57891, N-[3-(3-pyrrolidinomethylphenoxy)propyl]-3-pyridinecarboxamide 1-oxide] | 2.43 | 0.39 | – | – |
| O=CNCCCOc1cccc(CN2CCCC2)c1 [Compound IV, reference compound] | 0.47 | 2.01 | 0.84 | – |
| O=C(NCCCOc1cccc(CN2CCCC2)c1)c1cccnc1 [Compound V, reference compound] | 0.43 | 2.22 | 1.25 | – |
| CNC(=C[N+](=O)[O-])NCCSCc1ccc(CN(C)C)o1 [Ranitidine, N-[2-[[5-[(dimethylamino)methyl]furfuryl]thio]ethyl]-N'-methyl-2-nitro-1,1-ethenediamine, reference compound] | – | – | – | 3.80 |
| O=C(NCCCOc1cccc(CN2CCCCC2)c1)c1ccc[n+]([O-])c1 [SR 58017A, N-[3-(3-piperidinomethylphenoxy)propyl]-3-pyridinecarboxamide 1-oxide sesquioxalate] | 8.64 | 0.11 | – | – |
| CC1CCN(Cc2cccc(OCCCNC(=O)c3ccc[n+]([O-])c3)c2)CC1 [SR 58037, N-[3-[3-(4-methylpiperidinomethyl)phenoxy]propyl]-3-pyridinecarboxamide 1-oxide] | 7.31 | 0.13 | – | – |
| CC1CCCN(Cc2cccc(OCCCNC(=O)c3ccc[n+]([O-])c3)c2)C1 (centres unmarked) [SR 58042, N-[3-[3-(3-methylpiperidinomethyl)phenoxy]propyl]-3-pyridinecarboxamide1-oxide] | 6.78 | 0.14 | – | – |
| O=C(NCCCOc1cccc(CN2CCCCCC2)c1)c1ccc[n+]([O-])c1 [SR 58052, N-[3-(3-hexamethyleneiminomethylphenoxy)propyl]-3-pyridinecarboxamide 1-oxide] | 3.80 | 0.25 | – | – |
| CCCCN(CCCC)Cc1cccc(OCCCNC(=O)c2ccc[n+]([O-])c2)c1 [SR 58062, N-[3-(3-di-n-butylaminomethylphenoxy)propyl]-3-pyridinecarboxamide 1-oxide] | 1.19 | 0.8 | – | – |
| O=C(NCCCOc1cc(CN2CCCCC2)ccn1)c1ccc[n+]([O-])c1 [SR 58065, N-[3-(4-piperidinomethylpyrid-2-yloxy)propyl]3-pyridinecarboxamide 1-oxide] | 1.48 | 0.64 | – | – |
| O=C(NCCCOc1cccc(CN2CCC(O)CC2)c1)c1ccc[n+]([O-])c1 [SR 58067, N-[3-[3-(4-hydroxypiperidinomethyl)phenoxy]propyl]-3-pyridinecarboxamide 1-oxide] | 1.34 | 0.71 | – | – |
